Experimental data reported in patent publication US4012284A (Societa' Farmaceutici Italia, S.p.A., priority 1962, dated 1977).

Test system: Oberling-Guerin-Guerin myeloma
Test: Oberling-Guerin-Guerin myeloma (solid) in rats, successive experiment (Table XI)
Assay type: in vivo, rat
Description: At least 20 animals per lot were used.
The checking of the activity on solid tumors has been carried out with Ehrlich adenocarcinoma and sarcoma 180 in the mouse and with Walker carcinosarcoma and the Oberling-Guerin-Guerin myeloma in the rat. […]

[1] = 2.5 mg/kg/day intravenously, 7 times within 14 days

COc1cccc2c1C(=O)c1c(O)c3c(c(O)c1C2=O)C[C@@](O)(C(C)=O)C[C@@H]3O[C@H]1C[C@H](N)[C@H](O)[C@H](C)O1 [F.I. 1762]
% Inhibition, spleen [1]: 54.1% | % Inhibition, tumor [1]: 69.5% | Average weight, spleen (2.5 mg/kg/day intravenously, 7 times within 14 days, controls 1.303): 0.598 grams | Mortality (2.5 mg/kg/day intravenously, 7 times within 14 days, controls 5/15): 5/15 | Average weight, tumor (2.5 mg/kg/day intravenously, 7 times within 14 days, controls 13.486): 4.114 grams | Body weight change, not [net] (2.5 mg/kg/day intravenously, 7 times within 14 days, controls +40.22): +16.79 grams | Body weight change, gross (2.5 mg/kg/day intravenously, 7 times within 14 days, controls +53.7): +20.9 grams | tolerance of the antibiotic (Tables X and XI, 2 mg and 2.5 mg/kg/day intravenously): good tolerance | activity against this kind of tumor (Tables X and XI, 2 mg and 2.5 mg/kg/day intravenously produced the best results): active also against this kind of tumor
